Laboratory results from patent publication US12220395B2, “Intermittent endurance capacity improving agent or blood pH elevating agent” (AJINOMOTO CO., INC., priority 2018, dated 2025).

What was measured:
C57BL/6J male mice [1] = assay: mouse YO-YO test (intermittent endurance capacity, treadmill); assay type: in vivo; details: 6-week-old mice; oral aqueous solution 1 to 2 g/kg; YO-YO test from 30 min after administration; compared to water (negative control); FIG. 1
Description: After ingesting a test substance into 6-week-old C57BL/6J male mice, a mouse YO-YO test was conducted to evaluate an intermittent endurance capacity improving effect of the test substance using the intermittent endurance capacity of each individual as an index. As the test substance, 20 kinds of amino acids (or salts thereof) were used.
Preliminary running was performed on the mice one week before the main test. […] Unable to run was judged when the mouse could not keep up with the running speed. […] Grouping was performed such that the number of running sets and body weight of each individual obtained in the preliminary running were about the same for each group.
In the week following the preliminary running, the mice evaluated for the intermittent endurance capacity were orally administered with an aqueous solution containing a test substance in a dose of 1 to 2 g/kg mouse body weight, or water (negative control) at 20 mL/kg mouse body weight. […] From 30 min after the oral administration, the above-mentioned YO-YO test was performed to evaluate the effect of the test substance on the number of runnable sets of each individual. […]

C57BL/6J male mice [2] = assay: increase in mouse plasma pH by oral administration; details: for blood (plasma) pH increasing effect, time course: 7- to 9-week-old mice, aspartic acid 1 g/kg, blood sampled 30, 60, 120 min after administration, i-STAT, FIGS. 2 and 3

Compound	increase in the number of runnable sets (intermittent endurance capacity improving effect) (C57BL/6J male mice [1])	blood (plasma) pH increasing effect, time course (C57BL/6J male mice [2])	time of peak of the pH increasing effect (C57BL/6J male mice [2]; plasma pH, mice, FIG. 2)
N[C@@H](CC(=O)O)C(=O)O [aspartic acid]	significantly increased the number of runnable sets	affords an effect of increasing blood pH even after 0.5 hr to 2 hr from the administration	–
O=C([O-])O.[Na+] [sodium hydrogen carbonate]	–	the pH increasing effect disappeared rapidly thereafter	0.5 hr
N[C@@H](Cc1ccc(O)cc1)C(=O)O [tyrosine]	significantly increased the number of runnable sets	–	–
